# Species: Rattus norvegicus
# Experiment: DrugMatrix - Regimen: Daily Repeat
# Type: toxicity, organism-based, Sprague-Dawley
# Set-up: regimen Daily Repeat, gender Male, age 6-8 weeks
# Details: in vivo, po, route oral GAVAGE, […]; for ABSOLUTE BASOPHIL / ABSOLUTE EOSINOPHIL / ABSOLUTE LYMPHOCYTE / ABSOLUTE MONOCYTE / ABSOLUTE SEGMENTED NEUTROPHIL / BASOPHIL / EOSINOPHIL / ERYTHROCYTE COUNT / HEMATOCRIT / HEMOGLOBIN / LEUKOCYTE COUNT / LYMPHOCYTE / MEAN CORPUSCULAR HEMOGLOBIN / MEAN CORPUSCULAR HEMOGLOBIN CONCENTRATION / MEAN CORPUSCULAR VOLUME / MONOCYTE / NEUTROPHIL / NUCLEATED RED BLOOD CELLS / PLATELET COUNT: tissue Blood; for ALANINE AMINOTRANSFERASE / ALBUMIN / ALKALINE PHOSPHATASE / ASPARTATE AMINOTRANSFERASE / BLOOD UREA NITROGEN / CARBON DIOXIDE / CHLORIDE / CHOLESTEROL / CREATINE PHOSPHOKINASE / CREATININE / GLUCOSE / LACTATE DEHYDROGENASE / LIPASE / PHOSPHORUS / POTASSIUM / SODIUM / TOTAL BILIRUBIN / TOTAL PROTEIN / URIC ACID: tissue Plasma
# [1] = 0 mg/kg, 72 h, dose level Control, time 3 day
# [2] = 0 mg/kg, 120 h, dose level Control, time 5 day
# [3] = 30 mg/kg, 72 h, dose level Low, time 3 day
compound,measurement,setting,value
CCCCC(=O)N(Cc1ccc(-c2ccccc2-c2nnn[nH]2)cc1)[C@H](C(=O)O)C(C)C,ABSOLUTE BASOPHIL,[1],0 CELLS/uL
same,ABSOLUTE EOSINOPHIL,[1],13.67 CELLS/uL
same,ABSOLUTE LYMPHOCYTE,[1],10069.5 CELLS/uL
same,ABSOLUTE MONOCYTE,[1],50 CELLS/uL
same,ABSOLUTE SEGMENTED NEUTROPHIL,[1],516.83 CELLS/uL
same,BASOPHIL,[1],0%
same,EOSINOPHIL,[1],0.17%
same,ERYTHROCYTE COUNT,[1],5.44 x10E6/uL
same,HEMATOCRIT,[1],33.88%
same,HEMOGLOBIN,[1],13.23 G/DL
same,LEUKOCYTE COUNT,[1],10.65 x10E3/uL
same,LYMPHOCYTE,[1],94.67%
same,MEAN CORPUSCULAR HEMOGLOBIN,[1],24.37 pg
same,MEAN CORPUSCULAR HEMOGLOBIN CONCENTRATION,[1],39.05 G/DL
same,MEAN CORPUSCULAR VOLUME,[1],62.38 fL
same,MONOCYTE,[1],0.67%
same,NEUTROPHIL,[1],4.5%
same,NUCLEATED RED BLOOD CELLS,[1],0.33 /100WBC
same,PLATELET COUNT,[1],414.5 x10E3/uL
same,ALANINE AMINOTRANSFERASE,[1],72 u/L
same,ALBUMIN,[1],3.75 G/DL
same,ALKALINE PHOSPHATASE,[1],375 u/L
same,ASPARTATE AMINOTRANSFERASE,[1],87.5 u/L
same,BLOOD UREA NITROGEN,[1],14 mg/dL
same,CARBON DIOXIDE,[1],27.5 mmol/L
same,CHLORIDE,[1],95.83 MEQ/L
same,CHOLESTEROL,[1],68.5 mg/dL
same,CREATINE PHOSPHOKINASE,[1],284.33 u/L
same,CREATININE,[1],0.16 mg/dL
same,GLUCOSE,[1],156.67 mg/dL
same,LACTATE DEHYDROGENASE,[1],101.83 u/L
same,LIPASE,[1],9.67 u/L
same,PHOSPHORUS,[1],10.33 mg/dL
same,POTASSIUM,[1],5.22 MEQ/L
same,SODIUM,[1],137.67 MEQ/L
same,TOTAL BILIRUBIN,[1],0.13 mg/dL
same,TOTAL PROTEIN,[1],5.43 G/DL
same,URIC ACID,[1],0.8 mg/dL
same,ABSOLUTE BASOPHIL,[2],0 CELLS/uL
same,ABSOLUTE EOSINOPHIL,[2],20.67 CELLS/uL
same,ABSOLUTE LYMPHOCYTE,[2],11518.33 CELLS/uL
same,ABSOLUTE MONOCYTE,[2],47 CELLS/uL
same,ABSOLUTE SEGMENTED NEUTROPHIL,[2],614 CELLS/uL
same,BASOPHIL,[2],0%
same,EOSINOPHIL,[2],0.17%
same,ERYTHROCYTE COUNT,[2],5.61 x10E6/uL
same,HEMATOCRIT,[2],34.25%
same,HEMOGLOBIN,[2],13.38 G/DL
same,LEUKOCYTE COUNT,[2],12.2 x10E3/uL
same,LYMPHOCYTE,[2],94.33%
same,MEAN CORPUSCULAR HEMOGLOBIN,[2],23.83 pg
same,MEAN CORPUSCULAR HEMOGLOBIN CONCENTRATION,[2],39.08 G/DL
same,MEAN CORPUSCULAR VOLUME,[2],61.03 fL
same,MONOCYTE,[2],0.33%
same,NEUTROPHIL,[2],5.17%
same,NUCLEATED RED BLOOD CELLS,[2],0 /100WBC
same,PLATELET COUNT,[2],941.83 x10E3/uL
same,ALANINE AMINOTRANSFERASE,[2],68.83 u/L
same,ALBUMIN,[2],4.12 G/DL
same,ALKALINE PHOSPHATASE,[2],492.67 u/L
same,ASPARTATE AMINOTRANSFERASE,[2],83.33 u/L
same,BLOOD UREA NITROGEN,[2],14 mg/dL
same,CARBON DIOXIDE,[2],37 mmol/L
same,CHLORIDE,[2],98.67 MEQ/L
same,CHOLESTEROL,[2],56.5 mg/dL
same,CREATINE PHOSPHOKINASE,[2],167.33 u/L
same,CREATININE,[2],0.17 mg/dL
same,GLUCOSE,[2],157.5 mg/dL
same,LACTATE DEHYDROGENASE,[2],104.83 u/L
same,LIPASE,[2],10 u/L
same,PHOSPHORUS,[2],10.43 mg/dL
same,POTASSIUM,[2],5.46 MEQ/L
same,SODIUM,[2],143.87 MEQ/L
same,TOTAL BILIRUBIN,[2],0.17 mg/dL
same,TOTAL PROTEIN,[2],5.72 G/DL
same,URIC ACID,[2],0.85 mg/dL
same,ABSOLUTE BASOPHIL,[3],0 CELLS/uL
same,ABSOLUTE EOSINOPHIL,[3],32 CELLS/uL
same,ABSOLUTE LYMPHOCYTE,[3],7448.67 CELLS/uL
same,ABSOLUTE MONOCYTE,[3],0 CELLS/uL
same,ABSOLUTE SEGMENTED NEUTROPHIL,[3],586 CELLS/uL
same,BASOPHIL,[3],0%
same,EOSINOPHIL,[3],0.33%
same,ERYTHROCYTE COUNT,[3],5.55 x10E6/uL
same,HEMATOCRIT,[3],33.7%
same,HEMOGLOBIN,[3],13.27 G/DL
same,LEUKOCYTE COUNT,[3],8.07 x10E3/uL
same,LYMPHOCYTE,[3],92.33%
same,MEAN CORPUSCULAR HEMOGLOBIN,[3],23.9 pg
same,MEAN CORPUSCULAR HEMOGLOBIN CONCENTRATION,[3],39.33 G/DL
same,MEAN CORPUSCULAR VOLUME,[3],60.7 fL
same,MONOCYTE,[3],0%
same,NEUTROPHIL,[3],7.33%
same,NUCLEATED RED BLOOD CELLS,[3],0.67 /100WBC
same,PLATELET COUNT,[3],891 x10E3/uL
same,ALANINE AMINOTRANSFERASE,[3],67.67 u/L
same,ALBUMIN,[3],3.93 G/DL
same,ALKALINE PHOSPHATASE,[3],446.33 u/L
same,ASPARTATE AMINOTRANSFERASE,[3],94.33 u/L
same,BLOOD UREA NITROGEN,[3],14.33 mg/dL
same,CARBON DIOXIDE,[3],25 mmol/L
same,CHLORIDE,[3],95.5 MEQ/L
same,CHOLESTEROL,[3],77.67 mg/dL
same,CREATINE PHOSPHOKINASE,[3],130 u/L
same,CREATININE,[3],0.19 mg/dL
same,GLUCOSE,[3],147 mg/dL
same,LACTATE DEHYDROGENASE,[3],98 u/L
same,LIPASE,[3],11.33 u/L
same,PHOSPHORUS,[3],9.5 mg/dL
same,POTASSIUM,[3],5.71 MEQ/L
same,SODIUM,[3],138.1 MEQ/L
same,TOTAL BILIRUBIN,[3],0.1 mg/dL
same,TOTAL PROTEIN,[3],5.53 G/DL
same,URIC ACID,[3],0.57 mg/dL
